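Results reflect a 48-hour exposure of cells in 96-well plates to compound at five concentrations. Abbreviation: GI50, concentration required for 50% inhibition of growth.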 The source made the active and inactive calls. No stated cut-off is given here; in the data, active = GI50 up to about 1.1 µM and inactive = higher.
Legend:
Assay in all cases: inhibition of tumour cell growth, NCI panel, 48 h
PC-3 = test system: PC-3
U-251 = test system: U-251
K562 = test system: K562
M14 = test system: M14
EKVX = test system: EKVX
SW-620 = test system: SW-620
NCI-H460 = test system: NCI-H460
SF-539 = test system: SF-539
MDA-N = test system: MDA-N
NCI-H23 = test system: NCI-H23
SK-OV-3 = test system: SK-OV-3
MCF7 = test system: MCF7
RXF 393 = test system: RXF 393
MOLT-4 = test system: MOLT-4
MDA-MB-231 = test system: MDA-MB-231
HT-29 = test system: HT-29
SR = test system: SR
UACC-257 = test system: UACC-257
786-0 = test system: 786-0
DU-145 = test system: DU-145
CCRF-CEM = test system: CCRF-CEM
SK-MEL-28 = test system: SK-MEL-28
RPMI-8226 = test system: RPMI-8226
NCI-H226 = test system: NCI-H226
COLO 205 = test system: COLO 205
HCC 2998 = test system: HCC 2998
A549 = test system: A549
OVCAR-4 = test system: OVCAR-4
OVCAR-8 = test system: OVCAR-8
UO-31 = test system: UO-31
MDA-MB-435 = test system: MDA-MB-435
SF-295 = test system: SF-295
ACHN = test system: ACHN
SNB-19 = test system: SNB-19
SK-MEL-5 = test system: SK-MEL-5
NCI/ADR-RES = test system: NCI/ADR-RES
T47D = test system: T47D
SF-268 = test system: SF-268
A498 = test system: A498
OVCAR-3 = test system: OVCAR-3
Malme-3M = test system: Malme-3M
Hs-578T = test system: Hs-578T
BT-549 = test system: BT-549
HCT-15 = test system: HCT-15
HOP-62 = test system: HOP-62
TK-10 = test system: TK-10
LOX IMVI = test system: LOX IMVI
CAKI-1 = test system: CAKI-1
KM12 = test system: KM12
SK-MEL-2 = test system: SK-MEL-2
SN12C = test system: SN12C
SNB-75 = test system: SNB-75
HL-60 = test system: HL-60
HCT-116 = test system: HCT-116
HOP-92 = test system: HOP-92
UACC-62 = test system: UACC-62
NCI-H522 = test system: NCI-H522
IGROV-1 = test system: IGROV-1
OVCAR-5 = test system: OVCAR-5

## COC(=O)c1ccccc1C1CN=NC12Cc1cc(C)ccc1C2=O (configuration not stated)
PC-3
  GI50: 94.4 µM (inactive)
U-251
  GI50: > 100 µM (inactive)
K562
  GI50: 86.9 µM (inactive)
M14
  GI50: > 100 µM (inactive)
EKVX
  GI50: > 100 µM (inactive)
SW-620
  GI50: > 100 µM (inactive)
NCI-H460
  GI50: > 100 µM (inactive)
SF-539
  GI50: > 100 µM (inactive)
MDA-N
  GI50: 72.9 µM (inactive)
NCI-H23
  GI50: > 100 µM (inactive)
SK-OV-3
  GI50: > 100 µM (inactive)
MCF7
  GI50: 3.58 µM (inactive)
RXF 393
  GI50: > 100 µM (inactive)
MOLT-4
  GI50: > 100 µM (inactive)
MDA-MB-231
  GI50: 21.5 µM (inactive)
HT-29
  GI50: > 100 µM (inactive)
SR
  GI50: > 100 µM (inactive)
UACC-257
  GI50: > 100 µM (inactive)
786-0
  GI50: > 100 µM (inactive)
DU-145
  GI50: > 100 µM (inactive)
CCRF-CEM
  GI50: > 100 µM (inactive)
SK-MEL-28
  GI50: > 100 µM (inactive)
RPMI-8226
  GI50: > 100 µM (inactive)
NCI-H226
  GI50: > 100 µM (inactive)
COLO 205
  GI50: > 100 µM (inactive)
HCC 2998
  GI50: > 100 µM (inactive)
A549
  GI50: > 100 µM (inactive)
OVCAR-4
  GI50: > 100 µM (inactive)
OVCAR-8
  GI50: > 100 µM (inactive)
UO-31
  GI50: 52.4 µM (inactive)
MDA-MB-435
  GI50: 62.4 µM (inactive)
SF-295
  GI50: > 100 µM (inactive)
ACHN
  GI50: > 100 µM (inactive)
SNB-19
  GI50: > 100 µM (inactive)
SK-MEL-5
  GI50: > 100 µM (inactive)
NCI/ADR-RES
  GI50: 49.9 µM (inactive)
T47D
  GI50: > 100 µM (inactive)
SF-268
  GI50: > 100 µM (inactive)
A498
  GI50: > 100 µM (inactive)
OVCAR-3
  GI50: 57 µM (inactive)
Malme-3M
  GI50: > 100 µM (inactive)
Hs-578T
  GI50: 49 µM (inactive)
BT-549
  GI50: > 100 µM (inactive)
HCT-15
  GI50: > 100 µM
HOP-62
  GI50: > 100 µM (inactive)
TK-10
  GI50: 16.6 µM (inactive)
LOX IMVI
  GI50: 36.4 µM (inactive)
CAKI-1
  GI50: 84.1 µM (inactive)
KM12
  GI50: 92.9 µM (inactive)
SK-MEL-2
  GI50: > 100 µM (inactive)
SN12C
  GI50: > 100 µM (inactive)
SNB-75
  GI50: 71 µM (inactive)
HL-60
  GI50: 92.7 µM (inactive)
HCT-116
  GI50: > 100 µM (inactive)
HOP-92
  GI50: 43.2 µM (inactive)
UACC-62
  GI50: > 100 µM (inactive)
NCI-H522
  GI50: 63.8 µM (inactive)
IGROV-1
  GI50: > 100 µM (inactive)
OVCAR-5
  GI50: > 100 µM (inactive)

## CC(C)=CCC[C@@H](C)C1=C(Nc2ccccc2Cl)C(=O)C(C)=C(O)C1=O
PC-3
  GI50: 4.85 µM (inactive)
U-251
  GI50: 4.27 µM (inactive)
K562
  GI50: 17.1 µM (inactive)
M14
  GI50: 6.15 µM (inactive)
EKVX
  GI50: 3.12 µM (inactive)
SW-620
  GI50: 4.71 µM (inactive)
NCI-H460
  GI50: 2.43 µM (inactive)
SF-539
  GI50: 3.79 µM (inactive)
MDA-N
  GI50: 4.5 µM (inactive)
NCI-H23
  GI50: 2.84 µM (inactive)
SK-OV-3
  GI50: 5.14 µM (inactive)
MCF7
  GI50: 7.69 µM (inactive)
RXF 393
  GI50: 11.7 µM (inactive)
MOLT-4
  GI50: 2.04 µM (inactive)
MDA-MB-231
  GI50: 4.61 µM (inactive)
HT-29
  GI50: 3.56 µM (inactive)
SR
  GI50: 1.2 µM (inactive)
UACC-257
  GI50: 6.46 µM (inactive)
786-0
  GI50: 1.81 µM (inactive)
DU-145
  GI50: 6.64 µM (inactive)
CCRF-CEM
  GI50: 1.01 µM (active)
SK-MEL-28
  GI50: 11 µM (inactive)
RPMI-8226
  GI50: 1.17 µM (inactive)
NCI-H226
  GI50: 4.69 µM (inactive)
COLO 205
  GI50: 2.84 µM (inactive)
HCC 2998
  GI50: 6.18 µM (inactive)
A549
  GI50: 3.24 µM (inactive)
OVCAR-4
  GI50: 5.53 µM (inactive)
OVCAR-8
  GI50: 2.81 µM (inactive)
UO-31
  GI50: 2.89 µM (inactive)
MDA-MB-435
  GI50: 4.85 µM (inactive)
SF-295
  GI50: 2.88 µM (inactive)
ACHN
  GI50: 2.26 µM (inactive)
SNB-19
  GI50: 4.49 µM (inactive)
SK-MEL-5
  GI50: 1.95 µM (inactive)
NCI/ADR-RES
  GI50: 1.1 µM (active)
T47D
  GI50: 5.62 µM (inactive)
SF-268
  GI50: 3.85 µM (inactive)
A498
  GI50: 5.42 µM (inactive)
OVCAR-3
  GI50: 3.36 µM (inactive)
Malme-3M
  GI50: 4.29 µM (inactive)
Hs-578T
  GI50: 3.42 µM (inactive)
BT-549
  GI50: 7.16 µM (inactive)
HCT-15
  GI50: 2.38 µM
HOP-62
  GI50: 3.45 µM (inactive)
TK-10
  GI50: 4.88 µM (inactive)
LOX IMVI
  GI50: 3.26 µM (inactive)
CAKI-1
  GI50: 4.06 µM (inactive)
KM12
  GI50: 3.08 µM (inactive)
SK-MEL-2
  GI50: 3.66 µM (inactive)
SN12C
  GI50: 3.72 µM (inactive)
SNB-75
  GI50: 1.87 µM (inactive)
HL-60
  GI50: 0.612 µM (active)
HCT-116
  GI50: 3.91 µM (inactive)
HOP-92
  GI50: 6.82 µM (inactive)
UACC-62
  GI50: 3.67 µM (inactive)
NCI-H522
  GI50: 2.57 µM (inactive)
IGROV-1
  GI50: 2.45 µM (inactive)
OVCAR-5
  GI50: 14.6 µM (inactive)

## COc1ccc(/C=N/c2nc3cc4sc(/N=C/c5ccc(OC)cc5)nc4cc3s2)cc1
PC-3
  GI50: > 81.7 µM (inactive)
U-251
  GI50: 54.3 µM (inactive)
K562
  GI50: 34 µM (inactive)
M14
  GI50: 58.2 µM (inactive)
EKVX
  GI50: 21.2 µM (inactive)
SW-620
  GI50: 12.8 µM (inactive)
NCI-H460
  GI50: 5 µM (inactive)
SF-539
  GI50: > 100 µM (inactive)
MDA-N
  GI50: 34.2 µM (inactive)
NCI-H23
  GI50: 15.9 µM (inactive)
SK-OV-3
  GI50: 49.7 µM (inactive)
MCF7
  GI50: 11.6 µM (inactive)
RXF 393
  GI50: > 57.9 µM (inactive)
MOLT-4
  GI50: 8.15 µM (inactive)
MDA-MB-231
  GI50: 98.6 µM (inactive)
HT-29
  GI50: 23.1 µM (inactive)
SR
  GI50: 22.9 µM (inactive)
UACC-257
  GI50: 70.6 µM (inactive)
786-0
  GI50: > 76.4 µM (inactive)
DU-145
  GI50: > 23.7 µM (inactive)
CCRF-CEM
  GI50: 4.2 µM (inactive)
SK-MEL-28
  GI50: > 86.1 µM (inactive)
RPMI-8226
  GI50: 41.8 µM (inactive)
NCI-H226
  GI50: 24.9 µM (inactive)
COLO 205
  GI50: 3.66 µM (inactive)
HCC 2998
  GI50: 24.7 µM (inactive)
A549
  GI50: 8 µM (inactive)
OVCAR-4
  GI50: 57.4 µM (inactive)
OVCAR-8
  GI50: > 60.5 µM (inactive)
UO-31
  GI50: 55.7 µM (inactive)
MDA-MB-435
  GI50: 29.7 µM (inactive)
SF-295
  GI50: 43.6 µM (inactive)
ACHN
  GI50: 43.7 µM (inactive)
SNB-19
  GI50: > 100 µM (inactive)
SK-MEL-5
  GI50: 13.6 µM (inactive)
NCI/ADR-RES
  GI50: 23.4 µM (inactive)
T47D
  GI50: > 40.9 µM (inactive)
SF-268
  GI50: 56.8 µM (inactive)
A498
  GI50: > 100 µM (inactive)
OVCAR-3
  GI50: 23.6 µM (inactive)
Malme-3M
  GI50: > 54 µM (inactive)
Hs-578T
  GI50: > 32.7 µM (inactive)
BT-549
  GI50: 27.3 µM (inactive)
HCT-15
  GI50: 19.5 µM
HOP-62
  GI50: > 49.2 µM (inactive)
TK-10
  GI50: 30.9 µM (inactive)
LOX IMVI
  GI50: 28.3 µM (inactive)
CAKI-1
  GI50: 27 µM (inactive)
KM12
  GI50: 34.1 µM (inactive)
SK-MEL-2
  GI50: > 100 µM (inactive)
SN12C
  GI50: 32.7 µM (inactive)
SNB-75
  GI50: > 100 µM (inactive)
HL-60
  GI50: 18.4 µM (inactive)
HCT-116
  GI50: 18.4 µM (inactive)
HOP-92
  GI50: > 78.9 µM (inactive)
UACC-62
  GI50: 27.3 µM (inactive)
NCI-H522
  GI50: 10.4 µM (inactive)
IGROV-1
  GI50: 57.4 µM (inactive)
OVCAR-5
  GI50: > 81.5 µM (inactive)

From ChEMBL document CHEMBL1201862, “PubChem BioAssay data set” (2004)
